Test results reported in patent US9266834B2, “1, 4-disubstituted 3-cyano-pyridone derivatives and their use as positive allosteric modulators of MGLUR2-receptors” (JANSSEN PHARMACEUTICALS, INC., priority 2006, dated 2016).

Biological target: T1, human mGluR2 receptor (Homo sapiens, UniProt Q14416)
T1 construct: expressed in transfected cells; host or cells: CHO cells (membrane preparation)
Assay: [35S]GTPγS binding assay (GTPγS-PAM): positive allosteric modulation in presence of glutamate at EC25, membranes from transfected CHO cells
Format: biochemical
Conditions: in presence of mGluR2 agonist glutamate at predetermined EC25 concentration, averages of duplicate values of 11-concentration response curves; for EC50: read-out: GTPgS - hR2 PAM pEC50 (converted)
Description: The compounds provided in the present invention are positive allosteric modulators of mGluR2. These compounds appear to potentiate glutamate responses by binding to an allosteric site other than the glutamate binding site. The response of mGluR2 to a concentration of glutamate is increased when compounds of Formula (I) are present. Compounds of Formula (I) are expected to have their effect substantially at mGluR2 by virtue of their ability to enhance the function of the receptor. The behaviour of positive allosteric modulators tested at mGluR2 using the [^35S]GTPγS binding assay method described below and which is suitable for the identification of such compounds, and more particularly the compounds according to Formula (I), are shown in Table 4.
[^35S]GTPγS Binding Assay
The [^35S]GTPγS binding is a functional membrane-based assay used to study G-protein coupled receptor (GPCR) function whereby incorporation of a non-hydrolysable form of GTP, [^35S]GTPγS (guanosine 5′-triphosphate, labelled with […] ^35S), is measured. The G-protein o subunit catalyzes the exchange of guanosine 5′-diphosphate (GDP) by guanosine triphosphate (GTP) and on activation of the GPCR by an agonist, [^35S]GTPγS, becomes incorporated and cannot be cleaved to continue the exchange cycle (Harper (1998) Current Protocols in Pharmacology 2.6.1-10, John Wiley & Sons, Inc.). […] Here we describe the use of the [^35S]GTPγS binding assay using membranes from cells transfected with the human mGluR2 receptor and adapted from Schaffhauser et al ((2003) Molecular Pharmacology 4:798-810) for the detection of the positive allosteric modulation (PAM) properties of the compounds of this invention.
CHO-cells were cultured to pre-confluence and stimulated with 5 mM butyrate for 24 hours, prior to washing in PBS, and then collection by scraping in homogenisation buffer (50 mM Tris-HCl buffer, pH 7.4, 4° C.). Cell lysates were homogenized briefly (15 s) using an ultra-turrax homogenizer. The homogenate was centrifuged at 23 500×g for 10 minutes and the supernatant discarded. The pellet was resuspended in 5 mM Tris-HCl, pH 7.4 and centrifuged again (30 000×g, 20 min, 4° C.). The final pellet was resuspended in 50 mM HEPES, pH 7.4 and stored at −80° C. in appropriate aliquots before use. Protein concentration was determined by the Bradford method (Bio-Rad, USA) with bovine serum albumin as standard.
Measurement of mGluR2 positive allosteric modulators in membranes containing human mGluR2 was performed using frozen membranes that were thawed and briefly homogenised prior to pre-incubation in 96-well microplates (15 μg/assay well, 30 minutes, 30° C.) in assay buffer (50 mM HEPES pH 7.4, 100 mM NaCl, 3 mM MgCl2, 50 μM GDP, 10 μg/ml saponin,) with increasing concentrations of positive allosteric modulator (from 0.3 nM to 50 μM) and either a minimal pre-determined concentration of glutamate (PAM assay), or no added glutamate. For the PAM assay, membranes were pre-incubated with glutamate at EC25 concentration, i.e. a concentration that gives 25% of the maximal response glutamate, and is in accordance to published data (Pin et al. (1999) Eur. J. Pharmacol. 375:277-294). After addition of [^35S]GTPγS (0.1 nM, f.c.) to achieve a total reaction volume of 200 μl, microplates were shaken briefly and further incubated to allow [^35S]GTPγS incorporation on activation (30 minutes, 30° C.). The reaction was stopped by rapid vacuum filtration over glass-fibre filter plates (Unifilter 96-well GF/B filter plates, Perkin-Elmer, Downers Grove, USA) microplate using a 96-well plate cell harvester (Filtermate, Perkin-Elmer, USA), and then by washing three times with 300 μl of ice-cold wash buffer (Na2PO4.2H2O 10 mM, NaH2PO4.H2O 10 mM, pH=7.4). Filters were then air-dried, and 40 μl of liquid scintillation cocktail (Microscint-O) was added to each well, and membrane-bound [^35S]GTPγS was measured in a 96-well scintillation plate reader (Top-Count, Perkin-Elmer, USA). […]

T1 sequence (Q14416 19-872): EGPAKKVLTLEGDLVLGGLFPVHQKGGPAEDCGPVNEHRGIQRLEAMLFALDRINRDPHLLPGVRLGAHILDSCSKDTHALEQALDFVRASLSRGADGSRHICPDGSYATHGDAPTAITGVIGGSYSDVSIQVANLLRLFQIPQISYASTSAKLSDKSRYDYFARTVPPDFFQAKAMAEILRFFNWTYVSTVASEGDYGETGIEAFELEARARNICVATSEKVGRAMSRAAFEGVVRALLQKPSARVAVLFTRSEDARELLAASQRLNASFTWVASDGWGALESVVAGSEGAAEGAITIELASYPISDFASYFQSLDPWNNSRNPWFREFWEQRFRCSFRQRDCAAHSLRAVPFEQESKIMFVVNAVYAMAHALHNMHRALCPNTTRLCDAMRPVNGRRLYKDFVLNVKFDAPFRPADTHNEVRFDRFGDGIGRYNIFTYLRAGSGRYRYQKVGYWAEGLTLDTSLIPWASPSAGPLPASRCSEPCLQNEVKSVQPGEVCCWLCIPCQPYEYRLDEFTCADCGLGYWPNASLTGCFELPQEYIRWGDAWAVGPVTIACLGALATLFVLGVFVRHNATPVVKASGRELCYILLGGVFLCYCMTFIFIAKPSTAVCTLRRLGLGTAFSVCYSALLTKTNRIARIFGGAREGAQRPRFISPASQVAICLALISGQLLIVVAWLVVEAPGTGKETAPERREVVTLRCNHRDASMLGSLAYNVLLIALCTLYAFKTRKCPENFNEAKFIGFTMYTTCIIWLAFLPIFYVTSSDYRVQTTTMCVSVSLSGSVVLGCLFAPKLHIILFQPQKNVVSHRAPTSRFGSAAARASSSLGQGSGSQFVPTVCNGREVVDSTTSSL

| SMILES | EC50 [nM] | GTPgS - hR2 PAM pEC50 |
| --- | --- | --- |
| CC(C)CCn1ccc(-c2ccc(N3Cc4ccccc4C3)cc2)c(C#N)c1=O [1-237] | 398 |  |
| N#Cc1c(OCc2ccc(CN3CCOCC3)cc2)ccn(Cc2ccc(OC(F)(F)F)cc2)c1=O [1-271] | 158 |  |
| CC(C)CCn1ccc(-c2ccc(NC3CC3)cc2)c(C#N)c1=O [1-187] | 126 |  |
| CC(C)CCn1ccc(-c2ccc(Oc3ccccn3)cc2)c(C#N)c1=O [1-154] | 501 |  |
| CC(C)CCn1ccc(OCc2ccc(C#N)cc2)c(C#N)c1=O [1-286] | 3980 |  |
| N#Cc1c(N2CCN(Cc3cccc(F)c3)CC2)ccn(Cc2ccc(F)cc2)c1=O [2-050] | 2510 |  |
| CC(=O)Nc1ccc(-c2ccn(CCC(C)C)c(=O)c2C#N)cc1F [1-201] | 3980 |  |
| COc1cc(-c2ccn(CCC(C)C)c(=O)c2C#N)ccc1CNC(C)=O [1-184] | 3980 |  |
| N#Cc1c(N2CCN(Cc3ccncc3)CC2)ccn(Cc2ccc(OC(F)(F)F)cc2)c1=O [2-047] | 5010 |  |
| Cc1ccc(-c2ccn(CCC(C)C)c(=O)c2C#N)cc1[N+](=O)[O-] [1-214] | 794 |  |
| CC1COCC(C)N1Cc1ccc(-c2ccn(Cc3ccc(OC(F)(F)F)cc3)c(=O)c2C#N)cc1 (stereo not shown) [1-036] | 631 |  |
| CCCCn1ccc(Oc2ccc(Br)cc2)c(C#N)c1=O [1-273] | 631 |  |
| CC1CN(Cc2cc(F)cc(F)c2)CCN1c1ccn(Cc2ccc(OC(F)(F)F)cc2)c(=O)c1C#N (stereo not shown) [2-045] | 501 |  |
| COCCCc1ccc(-c2ccn(CCC(C)C)c(=O)c2C#N)cc1 [1-106] | 631 |  |
| CC(C)CCn1ccc(N[C@@H]2C[C@H]2c2ccccc2)c(C#N)c1=O (racemic) [1-304] | 2000 |  |
| CCCCn1ccc(-c2ccc(Oc3ccnc(N4CCOCC4)c3)cc2)c(C#N)c1=O [1-073] | 398 |  |
| CC(C)CCn1ccc(-c2ccc(OC(F)F)cc2)c(C#N)c1=O [1-119] | 631 |  |
| CC(C)CCn1ccc(-c2ccc(OCc3ccccc3)cc2)c(C#N)c1=O [1-141] | 63.1 |  |
| CC(C)CCn1ccc(Nc2ccc(Oc3ccncc3)cc2)c(C#N)c1=O [1-302] | 1260 |  |
| CCCCn1ccc(N2CCN(c3cnc(N4CCOCC4)nc3)CC2)c(C#N)c1=O [2-009] | 6310 |  |
| CC(C)CCn1ccc(-c2ccc(NCc3ccc(OC(F)(F)F)cc3)cc2)c(C#N)c1=O [1-205] | 251 |  |
| COc1cc(-c2ccn(CCC(C)C)c(=O)c2C#N)ccc1OC(C)=O [1-125] | 5010 |  |
| C[C@@H]1CN(c2ccn(CC3CC3)c(=O)c2C#N)C[C@H](C)N1c1ncccn1 [2-041] | 3160 |  |
| CC(C)CCn1ccc(-c2ccc(Oc3ccccc3)cc2)c(C#N)c1=O [1-140] | 39.8 |  |
| CC(=O)N1CCN(c2ccc(-c3ccn(CCC(C)C)c(=O)c3C#N)cc2)CC1 [1-231] | 1580 |  |

| SMILES | EC50 [nM] | GTPgS - hR2 PAM pEC50 |
| --- | --- | --- |
| COCCNc1ccc(-c2ccn(CCC(C)C)c(=O)c2C#N)cc1 [1-174] | 1580 |  |
| CC(C)CCn1ccc(N2CCN(CCc3ccccc3)CC2)c(C#N)c1=O [2-017] | 200 |  |
| CC(C)CCn1ccc(N2CCN(C/C=C/c3ccccc3)CC2)c(C#N)c1=O [2-018] | 2510 |  |
| COc1ccc(C=Cc2ccn(CCC(C)C)c(=O)c2C#N)cc1 [1-266] | 316 |  |
| N#Cc1c(N2CCN(c3ccccn3)CC2)ccn(Cc2ccc(F)cc2)c1=O [2-055] | 3980 |  |
| CCCCn1ccc(-c2ccc(Cn3ccnc3C)cc2)c(C#N)c1=O [1-060] | 1000 |  |
| N#Cc1c(N2CCN(Cc3ccccc3)CC2)ccn(CCOc2ccccc2)c1=O [2-053] | 631 |  |
| N#Cc1c(N2CCN(Cc3cc(F)cc(F)c3)CC2)ccn(Cc2ccc(F)cc2)c1=O [2-052] | 3980 |  |
| CCCCn1ccc(-c2ccc(Oc3ccc(C#N)cn3)cc2)c(C#N)c1=O [1-072] | 1580 |  |
| CC(C)CCn1ccc(N2CCN(c3ccccn3)CC2)c(C#N)c1=O [2-024] | 2000 |  |
| CC(C)CCn1ccc(-c2ccc(Cl)s2)c(C#N)c1=O [1-083] | 200 |  |
| CC(C)CCn1ccc(-c2ccc(N3CCN(c4ccccc4)CC3)cc2)c(C#N)c1=O [1-233] | 631 |  |
| CC(C)CCn1ccc(-c2ccc(C3(C(N)=O)CC3)cc2)c(C#N)c1=O [1-246] | 3980 |  |
| CC(C)CCn1ccc(-c2ccc(CN(C)Cc3ccc(F)cc3)cc2)c(C#N)c1=O [1-197] | 251 |  |
| CCCCn1ccc(N2CCN(c3nc(C)cc(C)n3)CC2)c(C#N)c1=O [2-005] |  | 6.2 |
| CC(C)CCn1ccc(N2CCN(Cc3cccc(C(F)(F)F)c3)CC2)c(C#N)c1=O [2-014] | 794 |  |
| CCCCn1ccc(N2CCN(c3nccc(OC)n3)CC2)c(C#N)c1=O [2-007] | 1000 |  |
| CCCCn1ccc(-c2cccc(Oc3ccncc3C(F)(F)F)c2)c(C#N)c1=O [1-069] | 2510 |  |
| CCCCn1ccc(-c2cccc(Oc3ccncc3)c2)c(C#N)c1=O [1-062] | 6310 |  |
| CCCCn1ccc(-c2ccc(Oc3ccncn3)cc2)c(C#N)c1=O [1-075] | 5010 |  |
| COc1ccc(COc2ccn(CCC(C)C)c(=O)c2C#N)cc1F [1-283] | 794 |  |
| CC(C)CCn1ccc(C=Cc2ccccc2)c(C#N)c1=O [1-261] | 200 |  |
| CCCCn1ccc(-c2cccc(Oc3ccccn3)c2)c(C#N)c1=O [1-061] | 6310 |  |
| COc1cc(F)c(-c2ccn(CCC(C)C)c(=O)c2C#N)c(F)c1 [1-116] | 631 |  |
| CC(C)CCn1ccc(OCc2ccc(OCc3ccccc3)cc2)c(C#N)c1=O [1-289] | 79.4 |  |

More lines, now with the values ahead:

| EC50 [nM] | GTPgS - hR2 PAM pEC50 | SMILES |
| --- | --- | --- |
| 1580 |  | CC(C)CCn1ccc(-c2ccc3[nH]ncc3c2)c(C#N)c1=O [5-021] |
| 251 |  | CN(Cc1cccc(C(F)(F)F)c1)C1CCN(c2ccn(Cc3ccc(F)cc3)c(=O)c2C#N)CC1 [4-058] |
| 31.6 |  | N#Cc1c(N2CCC(c3ccccc3)CC2)ccn(CCOc2ccccc2)c1=O [4-066] |
| 2510 |  | CC(C)CCn1ccc(N2CCC(c3ccccc3)(N3CCOCC3)CC2)c(C#N)c1=O [4-044] |
| 1260 |  | COc1cc2c(cc1OC)CN(c1ccn(CCC(C)C)c(=O)c1C#N)CC2 [5-032] |
| 1260 |  | CC(C)CCn1ccc(N2CCC(CN(C)Cc3ccc(F)cc3)CC2)c(C#N)c1=O [4-030] |
| 1260 |  | N#Cc1c(OC2CCN(Cc3cccc(C(F)(F)F)c3)CC2)ccn(CC2CC2)c1=O [3-012] |
| 1260 |  | CC(C)CCn1ccc(C2CCN(Cc3ccccc3)C2)c(C#N)c1=O (stereo not shown) [5-007] |
| 398 |  | CC(C)CCn1ccc(N2CCC(N(C)CCc3cccc(C(F)(F)F)c3)CC2)c(C#N)c1=O [4-032] |
| 5010 |  | CC(C)CCn1ccc(N2C[C@@H]3C[C@H]2CN3Cc2ccccc2)c(C#N)c1=O [5-004] |
| 2000 |  | CC(C)CCn1ccc(N2CCC(C(F)(F)F)CC2)c(C#N)c1=O [4-010] |
| 2000 |  | CC(C)CCn1ccc(N2CCCC(c3ccccc3)C2)c(C#N)c1=O (stereo not shown) [4-013] |
| 1580 |  | CCCCn1ccc(N2CCC(COc3cccnc3)CC2)c(C#N)c1=O [4-007] |
| 1580 |  | CCCCn1ccc(N2CCC(CCOc3cccnc3)CC2)c(C#N)c1=O [4-008] |
| 631 |  | Cc1cc(OCC2CCN(c3ccn(Cc4ccc(OC(F)(F)F)cc4)c(=O)c3C#N)CC2)ccn1 [4-052] |
| 6310 |  | CC(C)CCn1ccc(N2CCC(NCc3cccc(C(F)(F)F)c3)CC2)c(C#N)c1=O [4-024] |
| 1580 |  | N#Cc1c(C#Cc2ccncc2)ccn(CC2CCCCC2)c1=O [5-049] |
